Key:
Assay in all cases: fitness (endpoint OD595 vs no drug) (fraction); higher = more growth
S. aureus Newman = conditions: main component drawn
How it was run: (§1)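 Bacterial fitness was scored as optical density at the stationary-phase transition relative to the robust mean of no-drug control wells. Scores are capped at 1. The growth data were OD595 readings every 30 min for 14 h at 37 °C, background-subtracted against the first reading, from 384-well plates inoculated at OD595 0.01 in TSB, LB Lennox or CY.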

B. subtilis 168 = conditions: main component drawn
How it was run: as §1

S. aureus DSM 20231 = test system: S. aureus DSM 20231
How it was run: as §1

S. pneumoniae D39V = test system: S. pneumoniae D39V
How it was run: as §1
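Further: OD595 on entry to stationary phase over no-drug wells; at most 1.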

CC[C@H](C)[C@H](N)C1=N[C@H](C(=O)N[C@@H](CC(C)C)C(=O)N[C@H](CCC(=O)O)C(=O)N[C@H](C(=O)N[C@H]2CCCCNC(=O)[C@H](CC(N)=O)NC(=O)[C@@H](CC(=O)O)NC(=O)[C@H](Cc3cnc[nH]3)NC(=O)[C@@H](Cc3ccccc3)NC(=O)[C@H]([C@@H](C)CC)NC(=O)[C@@H](CCCN)NC2=O)[C@@H](C)CC)CS1 [Bacitracin] + CC1(C)S[C@@H]2[C@H](NC(=O)Cc3ccccc3)C(=O)N2[C@H]1C(=O)O [Penicillin G]
fitness, S. aureus Newman
Conditions | first compound 18.75 µg/mL | first compound 37.5 µg/mL | first compound 75 µg/mL
partner 0.0195 µg/mL | 0.642 | 0.35 | 0.018
partner 0.039 µg/mL | 0.698 | 0.2 | 0.0199
partner 0.078 µg/mL | 0.69 | – | 0.0358

CC[C@H](C)[C@H](N)C1=N[C@H](C(=O)N[C@@H](CC(C)C)C(=O)N[C@H](CCC(=O)O)C(=O)N[C@H](C(=O)N[C@H]2CCCCNC(=O)[C@H](CC(N)=O)NC(=O)[C@@H](CC(=O)O)NC(=O)[C@H](Cc3cnc[nH]3)NC(=O)[C@@H](Cc3ccccc3)NC(=O)[C@H]([C@@H](C)CC)NC(=O)[C@@H](CCCN)NC2=O)[C@@H](C)CC)CS1 [Bacitracin] + CN(C)[C@@H]1C(O)=C(C(N)=O)C(=O)[C@@]2(O)C(O)=C3C(=O)c4c(O)ccc(Cl)c4[C@@](C)(O)[C@H]3C[C@@H]12 [Chlortetracycline]
fitness, B. subtilis 168
Conditions | first compound 37.5 µg/mL | first compound 75 µg/mL | first compound 150 µg/mL
partner 0.0475 µg/mL | 0.865 | 0.856 | 0.723
partner 0.095 µg/mL | 0.753 | 0.68 | 0.497
partner 0.19 µg/mL | – | – | 0.0687

CC[C@H](C)[C@H](N)C1=N[C@H](C(=O)N[C@@H](CC(C)C)C(=O)N[C@H](CCC(=O)O)C(=O)N[C@H](C(=O)N[C@H]2CCCCNC(=O)[C@H](CC(N)=O)NC(=O)[C@@H](CC(=O)O)NC(=O)[C@H](Cc3cnc[nH]3)NC(=O)[C@@H](Cc3ccccc3)NC(=O)[C@H]([C@@H](C)CC)NC(=O)[C@@H](CCCN)NC2=O)[C@@H](C)CC)CS1 [Bacitracin] + CO[C@@]12[C@H](COC(N)=O)C3=C(C(=O)C(C)=C(N)C3=O)N1C[C@@H]1N[C@@H]12 [Mitomycin C]
fitness, S. aureus Newman
Conditions | first compound 18.75 µg/mL | first compound 37.5 µg/mL | first compound 75 µg/mL
partner 0.0156 µg/mL | 0.56 | – | 0.0457
partner 0.0312 µg/mL | 0.419 | 0.0317 | 0.0152
partner 0.0625 µg/mL | 0.229 | 0.0144 | 0

CC[C@H](C)[C@H](N)C1=N[C@H](C(=O)N[C@@H](CC(C)C)C(=O)N[C@H](CCC(=O)O)C(=O)N[C@H](C(=O)N[C@H]2CCCCNC(=O)[C@H](CC(N)=O)NC(=O)[C@@H](CC(=O)O)NC(=O)[C@H](Cc3cnc[nH]3)NC(=O)[C@@H](Cc3ccccc3)NC(=O)[C@H]([C@@H](C)CC)NC(=O)[C@@H](CCCN)NC2=O)[C@@H](C)CC)CS1 [Bacitracin] + N[C@@H]1CONC1=O [Cycloserine D]
fitness
Conditions | first compound 18.75 µg/mL | first compound 37.5 µg/mL | first compound 75 µg/mL | first compound 150 µg/mL
B. subtilis 168, partner 0.125 µg/mL | – | 0.893 | 0.89 | 0.737
B. subtilis 168, partner 0.25 µg/mL | – | 0.894 | 0.898 | –
B. subtilis 168, partner 0.5 µg/mL | – | 0.858 | 0.858 | –
S. aureus Newman, partner 0.375 µg/mL | 0.761 | 0.282 | 0.0299 | –
S. aureus Newman, partner 0.75 µg/mL | 0.761 | 0.28 | 0.0202 | –
S. aureus Newman, partner 1.5 µg/mL | 0.74 | 0.202 | 0.0116 | –

CC[C@H](C)[C@H](N)C1=N[C@H](C(=O)N[C@@H](CC(C)C)C(=O)N[C@H](CCC(=O)O)C(=O)N[C@H](C(=O)N[C@H]2CCCCNC(=O)[C@H](CC(N)=O)NC(=O)[C@@H](CC(=O)O)NC(=O)[C@H](Cc3cnc[nH]3)NC(=O)[C@@H](Cc3ccccc3)NC(=O)[C@H]([C@@H](C)CC)NC(=O)[C@@H](CCCN)NC2=O)[C@@H](C)CC)CS1 [Bacitracin] + O=C(O)[C@H]1/C(=C/CO)O[C@@H]2CC(=O)N21 [Clavulanic acid]
fitness, B. subtilis 168
Conditions | partner 1.5 µg/mL | partner 3 µg/mL | partner 6 µg/mL
first compound 37.5 µg/mL | 0.906 | 0.86 | 0.795
first compound 75 µg/mL | 0.915 | 0.838 | 0.734

fitness, S. aureus Newman, one replicate
Conditions | first compound 18.75 µg/mL | first compound 37.5 µg/mL | first compound 75 µg/mL
partner 0.03125 µg/mL | 0.682 | 0.298 | 0.0064
partner 0.0625 µg/mL | 0.673 | 0.251 | 0.0152
partner 0.125 µg/mL | 0.686 | 0.219 | 0.0264

CC(=O)NC[C@H]1CN(c2ccc(N3CCOCC3)c(F)c2)C(=O)O1 [Linezolid] + CO[C@@]12[C@H](COC(N)=O)C3=C(C(=O)C(C)=C(N)C3=O)N1C[C@@H]1N[C@@H]12 [Mitomycin C]
Conditions | fitness
S. aureus DSM 20231, first compound 0.125 µg/mL, partner 0.0156 µg/mL | 0.681
S. aureus DSM 20231, first compound 0.125 µg/mL, partner 0.0312 µg/mL | 0.68
S. aureus DSM 20231, first compound 0.125 µg/mL, partner 0.0625 µg/mL | 0.531
S. aureus DSM 20231, first compound 0.25 µg/mL, partner 0.0156 µg/mL | 0.466
S. aureus DSM 20231, first compound 0.25 µg/mL, partner 0.0312 µg/mL | 0.458
S. aureus DSM 20231, first compound 0.25 µg/mL, partner 0.0625 µg/mL | 0.296
S. aureus DSM 20231, first compound 0.5 µg/mL, partner 0.0156 µg/mL | 0.141
S. aureus DSM 20231, first compound 0.5 µg/mL, partner 0.0312 µg/mL | 0.105
S. aureus DSM 20231, first compound 0.5 µg/mL, partner 0.0625 µg/mL | 0.0726
S. pneumoniae D39V, first compound 0.105 µg/mL, partner 0.002 µg/mL | 0.745
S. pneumoniae D39V, first compound 0.105 µg/mL, partner 0.004 µg/mL | 0.669
S. pneumoniae D39V, first compound 0.105 µg/mL, partner 0.008 µg/mL | 0.524
S. pneumoniae D39V, first compound 0.2 µg/mL, partner 0.001075 µg/mL | 0.745
S. pneumoniae D39V, first compound 0.2 µg/mL, partner 0.00215 µg/mL | 0.733
S. pneumoniae D39V, first compound 0.2 µg/mL, partner 0.0043 µg/mL | 0.634
S. pneumoniae D39V, first compound 0.21 µg/mL, partner 0.002 µg/mL | 0.563
S. pneumoniae D39V, first compound 0.21 µg/mL, partner 0.004 µg/mL | 0.563
S. pneumoniae D39V, first compound 0.21 µg/mL, partner 0.008 µg/mL | 0.397
S. pneumoniae D39V, first compound 0.4 µg/mL, partner 0.001075 µg/mL | 0.618
S. pneumoniae D39V, first compound 0.4 µg/mL, partner 0.00215 µg/mL | 0.626
S. pneumoniae D39V, first compound 0.4 µg/mL, partner 0.0043 µg/mL | 0.366
S. pneumoniae D39V, first compound 0.42 µg/mL, partner 0.002 µg/mL | 0.414
S. pneumoniae D39V, first compound 0.42 µg/mL, partner 0.004 µg/mL | 0.389
S. pneumoniae D39V, first compound 0.42 µg/mL, partner 0.008 µg/mL | 0.23
S. pneumoniae D39V, first compound 0.8 µg/mL, partner 0.001075 µg/mL | 0.316
S. pneumoniae D39V, first compound 0.8 µg/mL, partner 0.00215 µg/mL | 0.323
S. pneumoniae D39V, first compound 0.8 µg/mL, partner 0.0043 µg/mL | 0.258

S. aureus DSM 20231, first compound 1 µg/mL, one replicate
Conditions | fitness
partner 0.0156 µg/mL | 0.0176
partner 0.0312 µg/mL | 0.0107
partner 0.0625 µg/mL | 0.0169
